Results reported in ChEMBL document CHEMBL1201862, “PubChem BioAssay data set” (2004).
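1) Cells in 96-well plates. 2) Compound, 48 h, 5 concentrations. 3) Linear interpolation between surrounding doses. 4) Unreached endpoint = highest concentration. GI50 is the concentration that inhibits growth by half.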 Activity calls are given as the source filed them. Cut-off read from the data, not from the text of the source: active = GI50 up to about 1.1 µM and inactive = higher.

What was measured:
Assay in all cases: growth of human tumour cells (NCI), 48 h
T47D = system: T47D
OVCAR-5 = system: OVCAR-5
COLO 205 = system: COLO 205
TK-10 = system: TK-10
DU-145 = system: DU-145
MCF7 = system: MCF7
NCI-H23 = system: NCI-H23
UO-31 = system: UO-31
HCT-116 = system: HCT-116
IGROV-1 = system: IGROV-1
U-251 = system: U-251
SF-268 = system: SF-268
M14 = system: M14
Malme-3M = system: Malme-3M
MOLT-4 = system: MOLT-4
SK-MEL-2 = system: SK-MEL-2
UACC-257 = system: UACC-257
SW-620 = system: SW-620
SK-MEL-28 = system: SK-MEL-28
HOP-92 = system: HOP-92

Compound	GI50 (T47D)	GI50 (OVCAR-5)	GI50 (COLO 205)	GI50 (TK-10)	GI50 (DU-145)	GI50 (MCF7)	GI50 (NCI-H23)	GI50 (UO-31)	GI50 (HCT-116)	GI50 (IGROV-1)	GI50 (U-251)	GI50 (SF-268)	GI50 (M14)	GI50 (Malme-3M)	GI50 (MOLT-4)	GI50 (SK-MEL-2)	GI50 (UACC-257)	GI50 (SW-620)	GI50 (SK-MEL-28)	GI50 (HOP-92)
COc1c(-c2ccc(F)cc2)oc2c(CC(=O)O)cccc2c1=O	> 100 µM (inactive)	> 100 µM (inactive)	> 100 µM (inactive)	> 100 µM (inactive)	> 100 µM (inactive)	> 100 µM (inactive)	45.5 µM (inactive)	40.9 µM (inactive)	> 100 µM (inactive)	> 100 µM (inactive)	> 100 µM (inactive)	> 100 µM (inactive)	> 100 µM (inactive)	> 100 µM (inactive)	> 100 µM (inactive)	> 100 µM (inactive)	> 100 µM (inactive)	–	–	–
CC(=O)OCCOCn1c2c(c(=S)[nH]c1=O)CCC2	–	> 100 µM (inactive)	> 100 µM (inactive)	> 100 µM (inactive)	> 100 µM (inactive)	> 100 µM (inactive)	> 100 µM (inactive)	> 100 µM (inactive)	> 100 µM (inactive)	> 100 µM (inactive)	> 100 µM (inactive)	> 100 µM (inactive)	> 100 µM (inactive)	> 100 µM (inactive)	> 100 µM (inactive)	> 100 µM (inactive)	> 100 µM (inactive)	> 100 µM (inactive)	> 100 µM (inactive)	> 100 µM (inactive)
COc1ccc(C2(CC(C)C)CCN(S(=O)(=O)c3ccc(C)cc3)C2)cc1OC (stereo not drawn)	14.4 µM (inactive)	> 100 µM (inactive)	25.8 µM (inactive)	63.5 µM (inactive)	36 µM (inactive)	32.2 µM (inactive)	29.8 µM (inactive)	41.6 µM (inactive)	20.2 µM (inactive)	50.2 µM (inactive)	36.2 µM (inactive)	21.9 µM (inactive)	34.8 µM (inactive)	–	2.94 µM (inactive)	20.7 µM (inactive)	28.5 µM (inactive)	99.5 µM (inactive)	30.1 µM (inactive)	–
NNC(=O)c1nn[nH]c1C(=O)NN	–	> 100 µM (inactive)	> 100 µM (inactive)	> 100 µM (inactive)	> 100 µM (inactive)	> 100 µM (inactive)	> 100 µM (inactive)	19 µM (inactive)	> 100 µM (inactive)	–	> 100 µM (inactive)	> 100 µM (inactive)	> 100 µM (inactive)	15.1 µM (inactive)	> 100 µM (inactive)	> 100 µM (inactive)	> 100 µM (inactive)	–	–	–
NC(=S)N/N=C1\CCCCc2ccccc21	4.81 µM (inactive)	> 10 µM (inactive)	> 10 µM (inactive)	> 10 µM (inactive)	> 10 µM (inactive)	> 10 µM (inactive)	> 10 µM (inactive)	> 10 µM (inactive)	> 10 µM (inactive)	–	> 10 µM (inactive)	> 10 µM (inactive)	> 10 µM (inactive)	> 10 µM (inactive)	> 10 µM (inactive)	> 10 µM (inactive)	> 10 µM (inactive)	> 10 µM (inactive)	–	–
Nc1ccc(/N=N/c2c(S(=O)(=O)O)cc3ccccc3c2S(=O)(=O)O)cc1	> 100 µM (inactive)	> 100 µM (inactive)	–	> 100 µM (inactive)	> 100 µM (inactive)	–	> 100 µM (inactive)	> 100 µM (inactive)	> 100 µM (inactive)	> 100 µM (inactive)	> 100 µM (inactive)	> 100 µM (inactive)	> 100 µM (inactive)	> 100 µM (inactive)	> 100 µM (inactive)	> 100 µM (inactive)	> 100 µM (inactive)	> 100 µM (inactive)	> 100 µM (inactive)	> 100 µM (inactive)
Nc1nc(N)c2c3c(cnc2n1)CC(c1ccccc1)CC3 (stereo not drawn)	23.9 µM (inactive)	14.3 µM (inactive)	35 µM (inactive)	21.7 µM (inactive)	25.4 µM (inactive)	11.7 µM (inactive)	–	–	2.86 µM (inactive)	0.728 µM (active)	10.7 µM (inactive)	11.9 µM (inactive)	3.24 µM (inactive)	31.5 µM (inactive)	50.5 µM (inactive)	32.3 µM (inactive)	65.3 µM (inactive)	11.4 µM (inactive)	35.6 µM (inactive)	–
CSc1ccc(/C=C2\CNC/C(=C\c3ccc(SC)cc3)C2=O)cc1	> 371 µM (inactive)	> 284 µM (inactive)	> 371 µM (inactive)	41.9 µM (inactive)	> 371 µM (inactive)	–	–	> 252 µM (inactive)	144 µM (inactive)	> 81.7 µM (inactive)	16.9 µM (inactive)	13.4 µM (inactive)	> 206 µM (inactive)	> 199 µM (inactive)	–	> 194 µM (inactive)	> 143 µM (inactive)	> 371 µM (inactive)	> 209 µM (inactive)	65.5 µM (inactive)
N#CCCN(C(=O)Nc1ccc(NC(=O)N(CCC#N)c2ccccc2)cc1)c1ccccc1	> 100 µM (inactive)	> 100 µM (inactive)	> 100 µM (inactive)	–	> 100 µM (inactive)	> 100 µM (inactive)	> 100 µM (inactive)	> 100 µM (inactive)	> 100 µM (inactive)	> 100 µM (inactive)	> 100 µM (inactive)	> 100 µM (inactive)	> 100 µM (inactive)	> 100 µM (inactive)	> 100 µM (inactive)	> 100 µM (inactive)	–	> 100 µM (inactive)	> 100 µM (inactive)	–
COc1ccccc1NC(=O)C1=C(C)NC(C)=C(C(=O)Nc2ccccc2OC)C1c1ccc(C2C(C(=O)Nc3ccccc3OC)=C(C)NC(C)=C2C(=O)Nc2ccccc2OC)cc1	–	3.22 µM (inactive)	3.33 µM (inactive)	11.5 µM (inactive)	–	–	2.39 µM (inactive)	4.14 µM (inactive)	1.3 µM (inactive)	1.99 µM (inactive)	2.52 µM (inactive)	2.82 µM (inactive)	1.61 µM (inactive)	2.51 µM (inactive)	1.19 µM (inactive)	2.08 µM (inactive)	2.33 µM (inactive)	1.86 µM (inactive)	2.44 µM (inactive)	3.29 µM (inactive)
CSC(SC)=C(C#N)C(=O)Nc1cccc(Cl)c1	–	98.2 µM (inactive)	> 100 µM (inactive)	59.3 µM (inactive)	–	34.8 µM (inactive)	–	–	30.6 µM (inactive)	69.2 µM (inactive)	76.7 µM (inactive)	> 100 µM (inactive)	47.8 µM (inactive)	79.4 µM (inactive)	20.5 µM (inactive)	> 100 µM (inactive)	> 100 µM (inactive)	39.8 µM (inactive)	64.7 µM (inactive)	21 µM (inactive)
[N-]=[N+]=NC(c1cn(C2CC(O)C(CO)O2)c(=O)[nH]c1=O)C(Cl)I (stereo not drawn)	> 100 µM (inactive)	> 100 µM (inactive)	> 100 µM (inactive)	> 100 µM (inactive)	> 100 µM (inactive)	> 100 µM (inactive)	> 100 µM (inactive)	> 100 µM (inactive)	> 100 µM (inactive)	> 100 µM (inactive)	> 100 µM (inactive)	> 100 µM (inactive)	> 100 µM (inactive)	–	> 100 µM (inactive)	> 100 µM (inactive)	> 100 µM (inactive)	> 100 µM (inactive)	> 100 µM (inactive)	–
CCOC(=O)NC1CN2CCC1CC2 (stereo not drawn)	> 100 µM (inactive)	> 100 µM (inactive)	> 100 µM (inactive)	–	> 100 µM (inactive)	–	> 100 µM (inactive)	> 100 µM (inactive)	> 100 µM (inactive)	> 100 µM (inactive)	> 100 µM (inactive)	> 100 µM (inactive)	> 100 µM (inactive)	> 100 µM (inactive)	> 100 µM (inactive)	> 100 µM (inactive)	> 100 µM (inactive)	> 100 µM (inactive)	> 100 µM (inactive)	> 100 µM (inactive)
COc1cc(C2c3cc4c(cc3[C@@H](Nc3ccccc3)C3CO[C@@H](OC)[C@H]23)OCO4)cc(OC)c1O (stereo partly drawn)	8.36 µM (inactive)	6.07 µM (inactive)	12.3 µM (inactive)	9.46 µM (inactive)	–	4.5 µM (inactive)	–	3.01 µM (inactive)	7.38 µM (inactive)	20.9 µM (inactive)	5.55 µM (inactive)	7.29 µM (inactive)	10.4 µM (inactive)	–	0.984 µM (active)	–	> 25 µM (inactive)	6.52 µM (inactive)	19.6 µM (inactive)	–
NC(=O)CNC(=O)[C@@H]1CC(OCCC(=O)O)CN1C(=O)C1CCCN1C(=O)OCc1ccccc1 (stereo partly drawn)	> 100 µM (inactive)	> 100 µM (inactive)	> 100 µM (inactive)	> 100 µM (inactive)	> 100 µM (inactive)	> 100 µM (inactive)	> 100 µM (inactive)	> 100 µM (inactive)	> 100 µM (inactive)	> 100 µM (inactive)	> 100 µM (inactive)	49.2 µM (inactive)	> 100 µM (inactive)	> 100 µM (inactive)	> 100 µM (inactive)	> 100 µM (inactive)	> 100 µM (inactive)	> 100 µM (inactive)	> 100 µM (inactive)	–
O=c1cc(-c2ccccc2)oc2ccc(-c3ccc4oc(-c5ccccc5)cc(=O)c4c3)cc12	–	27.6 µM (inactive)	17.1 µM (inactive)	29.4 µM (inactive)	–	18.8 µM (inactive)	15.7 µM (inactive)	8.95 µM (inactive)	15.9 µM (inactive)	26.9 µM (inactive)	–	–	16.6 µM (inactive)	20.3 µM (inactive)	11.2 µM (inactive)	18.2 µM (inactive)	> 10 µM (inactive)	30.5 µM (inactive)	–	14.4 µM (inactive)
